# Source: ChEMBL document CHEMBL1201862, “PubChem BioAssay data set” (2004)
# Calls of active or inactive are those of the source.
# Experiments:
# SUMO-activating enzyme = SUMO-activating enzyme (Homo sapiens, UniProt Q9UBT2); assay: SUMOylation inhibitor hit validation, confirmation, SUMOylation inhibitor project, biochemical, AlphaScreen (AID 2018); format: functional
# [1] = target: Tyrosyl-DNA phosphodiesterase 2 (Homo sapiens, UniProt O95551); assay: human TDP2 enzyme inhibitors, dose response, biochemical, epi absorbance, IC50 (AID 743297)
# Chain of Tyrosyl-DNA phosphodiesterase 2 (O95551 whole entry): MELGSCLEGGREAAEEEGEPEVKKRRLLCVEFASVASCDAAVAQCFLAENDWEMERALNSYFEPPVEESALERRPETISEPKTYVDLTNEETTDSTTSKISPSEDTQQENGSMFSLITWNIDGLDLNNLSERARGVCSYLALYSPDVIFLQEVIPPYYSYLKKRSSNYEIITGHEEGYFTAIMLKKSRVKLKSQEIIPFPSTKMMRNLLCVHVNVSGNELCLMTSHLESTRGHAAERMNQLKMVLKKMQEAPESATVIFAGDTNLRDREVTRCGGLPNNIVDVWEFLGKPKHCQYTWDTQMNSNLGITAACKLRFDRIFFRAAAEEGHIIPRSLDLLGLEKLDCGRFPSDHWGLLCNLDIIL
# HEK293 = assay: optical interference in Abeta FP readout, dose response, artefact control for IDE activator project, biochemical, fluorescence polarization (AID 588442); format: functional, cell-based; conditions: Homo sapiens
# [2] = target: T1, Ubiquitin-conjugating enzyme E2 N (Homo sapiens, UniProt P61088); format: functional
# T1 sequence (P61088 whole entry): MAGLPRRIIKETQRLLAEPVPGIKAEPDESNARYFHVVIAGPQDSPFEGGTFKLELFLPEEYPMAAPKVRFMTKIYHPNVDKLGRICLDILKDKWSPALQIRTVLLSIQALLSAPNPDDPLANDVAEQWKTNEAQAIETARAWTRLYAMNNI
# [3] = target: T1, Ubiquitin-conjugating enzyme E2 N; format: functional; remark: listed apart in the source
# [4] = target: Tyrosine-protein kinase ABL1 (Homo sapiens, UniProt P00519); format: functional
# Chain of Tyrosine-protein kinase ABL1 (P00519 whole entry): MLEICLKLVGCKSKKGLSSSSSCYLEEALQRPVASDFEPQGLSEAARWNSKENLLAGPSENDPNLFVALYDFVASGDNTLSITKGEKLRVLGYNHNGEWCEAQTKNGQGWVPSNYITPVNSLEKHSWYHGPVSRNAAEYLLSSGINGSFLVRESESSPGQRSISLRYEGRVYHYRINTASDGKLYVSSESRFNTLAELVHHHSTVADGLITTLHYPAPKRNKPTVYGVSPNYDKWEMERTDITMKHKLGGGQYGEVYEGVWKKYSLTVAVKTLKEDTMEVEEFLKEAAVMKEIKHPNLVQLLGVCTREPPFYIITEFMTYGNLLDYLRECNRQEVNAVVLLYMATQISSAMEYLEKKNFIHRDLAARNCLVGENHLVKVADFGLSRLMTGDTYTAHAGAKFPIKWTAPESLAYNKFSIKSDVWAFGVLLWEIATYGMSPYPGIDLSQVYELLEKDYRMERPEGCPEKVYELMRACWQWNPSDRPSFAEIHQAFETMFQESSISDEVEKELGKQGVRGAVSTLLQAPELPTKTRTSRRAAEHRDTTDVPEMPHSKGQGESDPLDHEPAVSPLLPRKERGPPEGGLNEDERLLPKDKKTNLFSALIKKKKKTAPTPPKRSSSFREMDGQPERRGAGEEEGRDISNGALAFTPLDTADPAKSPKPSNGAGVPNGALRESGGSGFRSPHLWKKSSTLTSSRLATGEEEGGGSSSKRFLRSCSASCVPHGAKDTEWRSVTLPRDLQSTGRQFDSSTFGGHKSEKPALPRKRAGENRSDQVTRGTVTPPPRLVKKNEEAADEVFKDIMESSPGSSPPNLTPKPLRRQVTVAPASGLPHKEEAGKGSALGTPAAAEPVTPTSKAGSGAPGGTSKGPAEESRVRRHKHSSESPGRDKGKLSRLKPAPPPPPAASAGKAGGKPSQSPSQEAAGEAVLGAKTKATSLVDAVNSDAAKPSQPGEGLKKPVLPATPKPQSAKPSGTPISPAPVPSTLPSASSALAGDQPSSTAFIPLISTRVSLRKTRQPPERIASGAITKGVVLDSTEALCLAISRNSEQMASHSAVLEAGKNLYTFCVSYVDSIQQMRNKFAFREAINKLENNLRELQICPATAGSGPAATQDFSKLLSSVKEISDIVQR
# Aurora kinase B = Aurora kinase B (Homo sapiens, UniProt Q96GD4); format: functional
# Chain of Aurora kinase B (Q96GD4 whole entry): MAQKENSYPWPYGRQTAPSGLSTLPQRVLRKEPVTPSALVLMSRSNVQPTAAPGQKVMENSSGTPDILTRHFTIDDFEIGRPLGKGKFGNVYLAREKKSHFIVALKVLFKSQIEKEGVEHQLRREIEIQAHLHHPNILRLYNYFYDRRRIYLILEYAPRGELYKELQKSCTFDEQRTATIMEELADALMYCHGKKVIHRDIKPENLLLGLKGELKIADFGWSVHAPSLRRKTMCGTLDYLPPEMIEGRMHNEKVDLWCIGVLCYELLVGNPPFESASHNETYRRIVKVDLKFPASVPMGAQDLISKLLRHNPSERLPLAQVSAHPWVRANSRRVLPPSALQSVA
# [5] = target: Mitogen-activated protein kinase 14 (Homo sapiens, UniProt Q16539); format: functional;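 further: part of a kinome-wide panel, MAPK14 entry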
# Chain of Mitogen-activated protein kinase 14 (Q16539 whole entry): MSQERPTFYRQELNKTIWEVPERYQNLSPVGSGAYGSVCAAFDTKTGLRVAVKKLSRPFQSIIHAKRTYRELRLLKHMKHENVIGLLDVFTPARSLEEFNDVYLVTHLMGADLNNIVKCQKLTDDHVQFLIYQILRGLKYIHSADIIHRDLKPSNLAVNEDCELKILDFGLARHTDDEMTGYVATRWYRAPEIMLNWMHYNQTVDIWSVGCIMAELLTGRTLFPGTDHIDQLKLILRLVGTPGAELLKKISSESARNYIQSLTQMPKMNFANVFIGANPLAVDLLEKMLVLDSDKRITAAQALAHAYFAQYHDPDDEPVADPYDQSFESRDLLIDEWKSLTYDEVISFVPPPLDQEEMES
# [6] = target: T2, Rac GTPase-activating protein 1 (Homo sapiens, UniProt Q9H0H5); assay: MgcRacGAP GTPase-activating activity inhibitors, confirmation, biochemical, ADP Hunter fluorescence, primary and confirmatory (AID 624330); format: functional
# T2 sequence (Q9H0H5 whole entry): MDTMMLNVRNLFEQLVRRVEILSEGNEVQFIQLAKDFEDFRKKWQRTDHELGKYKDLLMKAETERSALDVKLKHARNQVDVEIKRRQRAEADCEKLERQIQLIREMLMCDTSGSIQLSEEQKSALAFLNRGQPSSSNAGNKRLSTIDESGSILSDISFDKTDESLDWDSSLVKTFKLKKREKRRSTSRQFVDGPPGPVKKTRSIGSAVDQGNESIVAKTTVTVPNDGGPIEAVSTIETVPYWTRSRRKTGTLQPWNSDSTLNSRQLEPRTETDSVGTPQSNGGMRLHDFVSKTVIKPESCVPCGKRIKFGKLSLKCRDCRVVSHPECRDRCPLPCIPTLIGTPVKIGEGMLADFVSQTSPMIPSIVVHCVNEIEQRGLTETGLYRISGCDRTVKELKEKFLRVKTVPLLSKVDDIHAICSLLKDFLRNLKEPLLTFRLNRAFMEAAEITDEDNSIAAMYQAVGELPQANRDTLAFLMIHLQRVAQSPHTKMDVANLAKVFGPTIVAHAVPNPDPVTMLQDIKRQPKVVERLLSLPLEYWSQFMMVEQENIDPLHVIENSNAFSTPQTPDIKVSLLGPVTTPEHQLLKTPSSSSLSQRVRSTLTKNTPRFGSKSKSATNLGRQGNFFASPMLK
# [7] = target: T3, Serine/threonine-protein phosphatase (Candida dubliniensis (strain CD36 / CBS 7987 / NCPF 3949 / NRRLY-17841) (Yeast), UniProt B9W6M3); assay: calcineurin pathway inhibitors in yeast reporter, dose response, S. cerevisiae, CDRE-lacZ, luminescence, secondary (AID 2388); format: functional, cell-based;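 further: yeast reporter cells carrying a calcineurin-responsive lacZ construct stimulated with calcium chloride; luminescent beta-galactosidase reporter signal in whole cells rather than isolated phosphatase activity; potency for inhibition where a drop in reporter signal means calcineurin blockade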
# T3 sequence (B9W6M3 whole entry): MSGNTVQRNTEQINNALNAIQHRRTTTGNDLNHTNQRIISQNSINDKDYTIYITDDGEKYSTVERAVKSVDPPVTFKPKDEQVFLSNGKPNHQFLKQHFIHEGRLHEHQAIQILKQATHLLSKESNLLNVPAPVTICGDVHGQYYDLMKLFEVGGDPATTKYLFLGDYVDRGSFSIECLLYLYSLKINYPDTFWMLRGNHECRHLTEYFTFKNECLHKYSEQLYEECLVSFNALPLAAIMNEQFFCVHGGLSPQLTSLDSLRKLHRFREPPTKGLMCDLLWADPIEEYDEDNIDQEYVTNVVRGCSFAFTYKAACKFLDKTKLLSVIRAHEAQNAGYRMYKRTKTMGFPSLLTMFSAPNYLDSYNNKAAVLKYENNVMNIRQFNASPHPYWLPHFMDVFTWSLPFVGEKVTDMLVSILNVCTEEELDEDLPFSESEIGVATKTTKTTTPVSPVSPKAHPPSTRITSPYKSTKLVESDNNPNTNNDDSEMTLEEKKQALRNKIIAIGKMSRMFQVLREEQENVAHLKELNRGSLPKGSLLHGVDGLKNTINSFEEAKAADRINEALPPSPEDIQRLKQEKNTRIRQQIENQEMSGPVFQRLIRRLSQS
# [8] = Luminescence Cell-Based Dose Response HTS to Identify Inhibitors of 5'UTR Stem-Loop Driven Prion Protein mRNA Translation in H4 Neuroglioblastoma Cells. [Related pubchem assays: 1827 (Project Summary), 1813 (Primary HTS)]; format: functional
# [9] = target: T4, Zinc finger protein mex-5 (Caenorhabditis elegans, UniProt Q9XUB2); assay: MEX-5/TCR-2 RNA interaction inhibitors, dose response, biochemical, C. elegans, fluorescence polarization (AID 1960)
# T4 sequence (Q9XUB2 whole entry): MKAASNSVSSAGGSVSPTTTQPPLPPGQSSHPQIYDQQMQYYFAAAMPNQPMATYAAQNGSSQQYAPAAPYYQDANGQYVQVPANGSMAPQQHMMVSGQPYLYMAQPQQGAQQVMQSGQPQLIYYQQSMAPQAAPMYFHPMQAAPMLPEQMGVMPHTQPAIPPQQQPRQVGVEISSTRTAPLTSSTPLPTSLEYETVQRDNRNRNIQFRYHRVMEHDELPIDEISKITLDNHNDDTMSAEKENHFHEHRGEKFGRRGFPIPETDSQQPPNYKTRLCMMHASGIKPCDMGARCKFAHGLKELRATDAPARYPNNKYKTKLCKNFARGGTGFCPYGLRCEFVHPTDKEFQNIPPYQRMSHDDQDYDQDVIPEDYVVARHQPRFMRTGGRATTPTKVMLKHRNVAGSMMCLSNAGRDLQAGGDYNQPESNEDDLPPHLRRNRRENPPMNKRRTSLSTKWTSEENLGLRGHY
# Prothrombin = Prothrombin (Bos taurus, UniProt P00735); assay: thrombin inhibition, dose response, biochemical, fluorescence polarization, uHTS hits (AID 602369); format: functional
# cells = format: functional, cell-based
# Chain of SUMO-activating enzyme (Q9UBE0 whole entry): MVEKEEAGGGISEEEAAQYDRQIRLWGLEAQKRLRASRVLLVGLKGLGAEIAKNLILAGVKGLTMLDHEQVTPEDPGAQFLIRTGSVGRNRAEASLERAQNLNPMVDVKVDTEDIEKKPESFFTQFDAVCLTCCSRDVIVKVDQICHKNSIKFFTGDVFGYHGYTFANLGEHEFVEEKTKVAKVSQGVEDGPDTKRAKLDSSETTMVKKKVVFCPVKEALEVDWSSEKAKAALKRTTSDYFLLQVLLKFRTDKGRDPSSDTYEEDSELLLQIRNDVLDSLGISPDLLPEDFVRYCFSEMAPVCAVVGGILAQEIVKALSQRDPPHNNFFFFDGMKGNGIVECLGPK
# Chain of SUMO-activating enzyme (Q9UBT2 whole entry): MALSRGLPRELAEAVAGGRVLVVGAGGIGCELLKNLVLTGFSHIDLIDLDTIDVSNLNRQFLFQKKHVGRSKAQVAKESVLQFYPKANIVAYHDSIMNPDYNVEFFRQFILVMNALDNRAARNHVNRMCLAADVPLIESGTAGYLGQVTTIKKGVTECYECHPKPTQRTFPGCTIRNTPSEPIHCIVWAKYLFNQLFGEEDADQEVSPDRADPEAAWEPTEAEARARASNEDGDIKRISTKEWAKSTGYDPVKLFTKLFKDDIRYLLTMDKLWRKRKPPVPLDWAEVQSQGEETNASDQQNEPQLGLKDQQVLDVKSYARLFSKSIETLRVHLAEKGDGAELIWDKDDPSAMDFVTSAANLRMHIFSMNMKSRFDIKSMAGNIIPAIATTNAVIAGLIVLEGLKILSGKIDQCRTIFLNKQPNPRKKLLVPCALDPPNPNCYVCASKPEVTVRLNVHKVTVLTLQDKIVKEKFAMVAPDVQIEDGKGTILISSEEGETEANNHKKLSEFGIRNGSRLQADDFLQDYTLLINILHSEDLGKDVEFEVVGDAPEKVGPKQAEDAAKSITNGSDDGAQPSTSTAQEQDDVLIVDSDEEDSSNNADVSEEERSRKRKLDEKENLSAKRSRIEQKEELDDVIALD
smiles,measurement,setting,value
O=C(Cc1ccccc1Cl)NC1(O)C(=O)c2ccccc2C1=O,IC50,SUMO-activating enzyme,5.64 µM (active)
same,IC50,[1],11.5 µM (inactive)
CNC[C@H](Cc1ccccc1)NC[C@@H](Cc1cccc2ccccc12)NCCc1ccc(C)cc1,EC50,HEK293,> 54.7 µM (inactive)
same,IC50,[2],14.9 µM (active)
same,IC50,[3],11.5 µM (active)
Nc1c(-c2ccc(NC(=O)Nc3cccc(C(F)(F)F)c3)cc2)cnc2c(-c3ccc4c(c3)OCO4)cnn12,Ki,[4],0.2 µM (active)
same,Ki,Aurora kinase B,1 µM (active)
same,Ki,[5],> 3.98 µM (inactive)
CCN1C(=Cc2sc3ccccc3[n+]2C)C=Cc2cccc(C)c21,IC50,[6],55.9 µM (active)
same,EC50,[7],> 180 µM (inactive)
same,EC50,[8],6.43 µM (active)
Nc1nnc2c(n1)CCCC2,EC50,[9],59.3 µM (active)
O=C(N/N=C/c1c(O)ccc2ccccc12)c1[nH]ncc1Br,IC50,Prothrombin,91.6 µM (active)
same,EC50,cells,10.7 µM (active)
